The kinase profiling compilation of Christmann-Franck et al. (2016)

Assays:
Assay in all cases: KINOMEscan competition binding
Conditions in all cases: compound 10.0 µM
[1] = target: MAP4K2 (human) (UniProt Q12851)
[2] = target: NUAK1 (human) (UniProt O60285)
[3] = target: MAST1 (human) (UniProt Q9Y2H9)
[4] = target: DCLK2 (human) (UniProt Q8N568)
[5] = target: RIOK3 (human) (UniProt O14730)
[6] = target: MAP3K12 (human) (UniProt Q12852)
[7] = target: BLK (human) (UniProt P51451)
[8] = target: IRAK1 (human) (UniProt P51617)
[9] = target: MYLK3 (human) (UniProt Q32MK0)
[10] = target: DYRK1A (human) (UniProt Q13627)
[11] = target: STK38 (human) (UniProt Q15208)
[12] = target: BMPR1A (human) (UniProt P36894)
[13] = target: NIM1 (human) (UniProt Q8IY84)
[14] = target: MAP3K1 (human) (UniProt Q13233)
[15] = target: CDK7 (human) (UniProt P50613)
[16] = target: CAMKK1 (human) (UniProt Q8N5S9)
[17] = target: TBK1 (human) (UniProt Q9UHD2)
[18] = target: STK35 (human) (UniProt Q8TDR2)
[19] = target: AURKC (human) (UniProt Q9UQB9)
[20] = target: CAMK2D (human) (UniProt Q13557)
[21] = target: ROS1 (human) (UniProt P08922)
[22] = target: LATS1 (human) (UniProt O95835)
[23] = target: DAPK1 (human) (UniProt P53355)
[24] = target: ULK3 (human) (UniProt Q6PHR2)
[25] = target: LIMK2 (human) (UniProt P53671)
[26] = target: PRKAA2 (human) (UniProt P54646)
[27] = target: GSK3B (human) (UniProt P49841)
[28] = target: CDK15 (human) (UniProt Q96Q40)
[29] = target: INSR (human) (UniProt P06213)
[30] = target: CSNK1G1 (human) (UniProt Q9HCP0)
[31] = target: TSSK1B (human) (UniProt Q9BXA7)
[32] = target: MAP3K2 (human) (UniProt Q9Y2U5)
[33] = test system: PIK3CA (human), P42336 [E542K]
[34] = target: MAP3K7 (human) (UniProt O43318)
[35] = target: PRKG1 (human) (UniProt Q13976)
[36] = target: TNK2 (human) (UniProt Q07912)
[37] = target: PKN3 (M.tuberculosis) (UniProt Q6P5Z2)
[38] = target: TAOK2 (human) (UniProt Q9UL54)
[39] = target: MAP2K5 (human) (UniProt Q13163)
[40] = target: MAP2K7 (human) (UniProt O14733)

GSK3B (human), sequence (P49841 whole entry, looked up): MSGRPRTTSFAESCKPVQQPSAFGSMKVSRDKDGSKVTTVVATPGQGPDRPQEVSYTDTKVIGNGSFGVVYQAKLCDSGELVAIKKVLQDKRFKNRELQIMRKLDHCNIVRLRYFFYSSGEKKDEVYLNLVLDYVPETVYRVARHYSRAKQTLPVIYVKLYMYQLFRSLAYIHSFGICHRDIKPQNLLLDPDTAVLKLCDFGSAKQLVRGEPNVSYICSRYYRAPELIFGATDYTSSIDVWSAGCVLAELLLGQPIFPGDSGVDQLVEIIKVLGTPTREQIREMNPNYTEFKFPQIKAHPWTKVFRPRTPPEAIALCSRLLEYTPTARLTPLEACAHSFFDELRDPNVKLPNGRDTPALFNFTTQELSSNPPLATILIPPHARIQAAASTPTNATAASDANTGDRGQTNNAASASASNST
CSNK1G1 (human), sequence (Q9HCP0 whole entry, looked up): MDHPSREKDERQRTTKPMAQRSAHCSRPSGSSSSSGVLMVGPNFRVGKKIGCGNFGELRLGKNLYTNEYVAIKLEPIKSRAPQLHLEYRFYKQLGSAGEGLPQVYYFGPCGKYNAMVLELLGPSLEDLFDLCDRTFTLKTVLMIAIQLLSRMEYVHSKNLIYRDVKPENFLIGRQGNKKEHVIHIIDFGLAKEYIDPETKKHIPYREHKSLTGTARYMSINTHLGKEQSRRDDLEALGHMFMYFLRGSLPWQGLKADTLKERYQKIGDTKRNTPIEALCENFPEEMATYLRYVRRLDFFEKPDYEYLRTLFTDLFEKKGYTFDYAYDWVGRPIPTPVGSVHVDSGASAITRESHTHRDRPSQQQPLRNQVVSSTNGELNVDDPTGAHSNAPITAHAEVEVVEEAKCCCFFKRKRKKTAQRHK
MAP3K2 (human), sequence (Q9Y2U5 whole entry, looked up): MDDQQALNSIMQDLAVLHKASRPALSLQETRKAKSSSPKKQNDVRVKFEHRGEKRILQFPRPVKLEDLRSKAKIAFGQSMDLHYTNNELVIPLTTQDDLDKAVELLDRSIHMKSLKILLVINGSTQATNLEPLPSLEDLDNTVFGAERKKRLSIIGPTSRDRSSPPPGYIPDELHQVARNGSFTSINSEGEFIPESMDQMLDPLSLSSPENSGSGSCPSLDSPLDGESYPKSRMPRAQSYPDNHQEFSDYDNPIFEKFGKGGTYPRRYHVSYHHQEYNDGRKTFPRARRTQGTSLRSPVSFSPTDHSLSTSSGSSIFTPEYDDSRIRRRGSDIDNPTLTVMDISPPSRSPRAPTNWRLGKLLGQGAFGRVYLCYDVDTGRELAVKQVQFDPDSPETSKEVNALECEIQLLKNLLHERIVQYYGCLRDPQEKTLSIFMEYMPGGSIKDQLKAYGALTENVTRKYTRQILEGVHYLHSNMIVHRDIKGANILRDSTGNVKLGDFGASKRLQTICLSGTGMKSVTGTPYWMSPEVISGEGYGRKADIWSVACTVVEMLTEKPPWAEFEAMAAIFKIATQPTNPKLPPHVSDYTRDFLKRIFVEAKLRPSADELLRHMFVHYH
DAPK1 (human), sequence (P53355 whole entry, looked up): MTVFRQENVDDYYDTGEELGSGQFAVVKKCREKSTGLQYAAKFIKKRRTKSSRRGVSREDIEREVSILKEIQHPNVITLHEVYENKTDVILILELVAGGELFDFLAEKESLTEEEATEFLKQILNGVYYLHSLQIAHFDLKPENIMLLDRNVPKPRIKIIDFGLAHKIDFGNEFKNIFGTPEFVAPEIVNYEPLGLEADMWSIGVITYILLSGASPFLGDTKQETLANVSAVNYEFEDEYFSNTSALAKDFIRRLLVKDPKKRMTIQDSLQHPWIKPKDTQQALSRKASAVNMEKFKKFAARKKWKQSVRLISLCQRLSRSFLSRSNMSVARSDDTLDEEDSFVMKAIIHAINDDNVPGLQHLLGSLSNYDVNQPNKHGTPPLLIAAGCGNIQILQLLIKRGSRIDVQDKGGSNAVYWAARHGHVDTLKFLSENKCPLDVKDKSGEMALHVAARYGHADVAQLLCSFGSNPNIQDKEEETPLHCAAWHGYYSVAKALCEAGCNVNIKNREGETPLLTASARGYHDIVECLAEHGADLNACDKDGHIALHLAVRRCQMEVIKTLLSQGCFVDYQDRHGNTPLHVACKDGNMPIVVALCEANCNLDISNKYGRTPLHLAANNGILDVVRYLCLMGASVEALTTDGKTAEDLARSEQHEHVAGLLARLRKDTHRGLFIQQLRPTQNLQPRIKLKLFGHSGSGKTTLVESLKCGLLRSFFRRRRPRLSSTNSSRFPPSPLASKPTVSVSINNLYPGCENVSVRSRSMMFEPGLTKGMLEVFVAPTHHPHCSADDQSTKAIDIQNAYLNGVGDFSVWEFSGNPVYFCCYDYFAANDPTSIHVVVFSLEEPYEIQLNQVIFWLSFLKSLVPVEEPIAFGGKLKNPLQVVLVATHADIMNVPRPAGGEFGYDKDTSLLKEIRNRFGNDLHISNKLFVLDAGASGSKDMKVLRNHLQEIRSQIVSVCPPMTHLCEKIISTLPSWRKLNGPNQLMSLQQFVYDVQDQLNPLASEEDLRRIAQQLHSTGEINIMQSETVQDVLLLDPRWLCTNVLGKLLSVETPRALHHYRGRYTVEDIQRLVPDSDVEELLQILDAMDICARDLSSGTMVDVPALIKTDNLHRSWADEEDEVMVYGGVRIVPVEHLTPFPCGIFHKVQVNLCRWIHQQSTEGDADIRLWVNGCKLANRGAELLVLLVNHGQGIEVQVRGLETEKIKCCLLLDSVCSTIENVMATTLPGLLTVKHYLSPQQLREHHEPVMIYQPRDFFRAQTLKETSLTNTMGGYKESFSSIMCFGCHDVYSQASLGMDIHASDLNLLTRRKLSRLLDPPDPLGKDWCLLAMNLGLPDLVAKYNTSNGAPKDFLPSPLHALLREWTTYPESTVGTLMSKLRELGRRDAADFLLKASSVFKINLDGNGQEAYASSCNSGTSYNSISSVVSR
IRAK1 (human), sequence (P51617 whole entry, looked up): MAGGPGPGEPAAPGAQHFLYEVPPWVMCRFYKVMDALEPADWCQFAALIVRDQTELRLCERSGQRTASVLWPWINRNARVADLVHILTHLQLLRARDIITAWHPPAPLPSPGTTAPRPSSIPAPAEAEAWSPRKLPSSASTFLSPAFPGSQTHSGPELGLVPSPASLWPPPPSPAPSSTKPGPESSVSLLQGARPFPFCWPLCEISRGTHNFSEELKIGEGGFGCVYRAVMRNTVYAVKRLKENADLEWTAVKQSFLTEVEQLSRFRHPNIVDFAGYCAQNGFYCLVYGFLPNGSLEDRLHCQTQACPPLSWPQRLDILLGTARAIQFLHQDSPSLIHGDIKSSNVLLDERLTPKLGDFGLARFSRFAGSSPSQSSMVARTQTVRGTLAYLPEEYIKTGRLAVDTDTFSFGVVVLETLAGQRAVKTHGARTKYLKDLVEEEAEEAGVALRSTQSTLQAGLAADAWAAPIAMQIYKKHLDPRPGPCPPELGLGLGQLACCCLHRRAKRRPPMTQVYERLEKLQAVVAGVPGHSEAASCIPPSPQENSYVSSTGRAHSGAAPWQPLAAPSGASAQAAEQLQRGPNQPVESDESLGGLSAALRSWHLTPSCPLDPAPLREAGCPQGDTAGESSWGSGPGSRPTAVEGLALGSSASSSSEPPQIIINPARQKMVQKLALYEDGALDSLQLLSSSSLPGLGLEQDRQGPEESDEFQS
PIK3CA (human), P42336 [E542K], sequence (P42336 whole entry E542K, looked up): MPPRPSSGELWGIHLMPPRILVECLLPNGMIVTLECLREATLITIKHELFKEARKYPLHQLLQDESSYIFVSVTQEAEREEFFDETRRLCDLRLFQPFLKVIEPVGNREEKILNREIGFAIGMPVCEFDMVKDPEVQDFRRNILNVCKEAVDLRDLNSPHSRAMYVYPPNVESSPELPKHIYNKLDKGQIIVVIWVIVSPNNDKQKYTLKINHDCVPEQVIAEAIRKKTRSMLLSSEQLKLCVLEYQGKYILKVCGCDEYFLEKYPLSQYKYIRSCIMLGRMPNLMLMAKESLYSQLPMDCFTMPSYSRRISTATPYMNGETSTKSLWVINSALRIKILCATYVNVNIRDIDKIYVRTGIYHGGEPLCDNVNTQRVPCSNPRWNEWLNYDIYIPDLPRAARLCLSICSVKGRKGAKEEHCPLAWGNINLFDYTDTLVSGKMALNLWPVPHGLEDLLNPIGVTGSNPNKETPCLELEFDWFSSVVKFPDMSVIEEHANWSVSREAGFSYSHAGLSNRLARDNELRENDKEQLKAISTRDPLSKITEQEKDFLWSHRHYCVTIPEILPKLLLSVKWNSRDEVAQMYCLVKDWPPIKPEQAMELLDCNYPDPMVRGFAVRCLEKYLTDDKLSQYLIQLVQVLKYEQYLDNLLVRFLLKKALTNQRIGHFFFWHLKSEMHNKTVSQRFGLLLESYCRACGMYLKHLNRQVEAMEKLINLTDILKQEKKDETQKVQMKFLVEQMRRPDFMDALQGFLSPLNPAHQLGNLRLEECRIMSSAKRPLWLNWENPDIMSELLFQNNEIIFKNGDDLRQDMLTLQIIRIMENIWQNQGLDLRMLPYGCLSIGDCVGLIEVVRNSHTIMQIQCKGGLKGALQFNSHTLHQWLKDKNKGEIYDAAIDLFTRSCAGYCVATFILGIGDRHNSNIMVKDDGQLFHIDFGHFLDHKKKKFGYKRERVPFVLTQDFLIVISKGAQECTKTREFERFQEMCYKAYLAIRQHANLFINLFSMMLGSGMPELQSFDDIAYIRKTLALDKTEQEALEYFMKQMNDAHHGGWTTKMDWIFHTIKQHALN
AURKC (human), sequence (Q9UQB9 whole entry, looked up): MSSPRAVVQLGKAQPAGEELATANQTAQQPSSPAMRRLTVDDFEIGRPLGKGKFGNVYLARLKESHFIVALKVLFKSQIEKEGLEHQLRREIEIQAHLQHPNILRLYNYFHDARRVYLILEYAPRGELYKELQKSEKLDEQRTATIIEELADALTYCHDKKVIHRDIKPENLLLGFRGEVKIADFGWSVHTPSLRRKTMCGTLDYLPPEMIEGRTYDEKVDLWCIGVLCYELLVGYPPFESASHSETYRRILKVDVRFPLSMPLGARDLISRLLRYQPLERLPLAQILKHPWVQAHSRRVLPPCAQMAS

SMILES	kinase still bound, per cent of control [1]	kinase still bound, per cent of control [2]	kinase still bound, per cent of control [3]	kinase still bound, per cent of control [4]	kinase still bound, per cent of control [5]	kinase still bound, per cent of control [6]	kinase still bound, per cent of control [8]	kinase still bound, per cent of control [9]	kinase still bound, per cent of control [10]	kinase still bound, per cent of control [11]	kinase still bound, per cent of control [12]	kinase still bound, per cent of control [13]	kinase still bound, per cent of control [15]	kinase still bound, per cent of control [16]	kinase still bound, per cent of control [17]	kinase still bound, per cent of control [18]	kinase still bound, per cent of control [19]	kinase still bound, per cent of control [20]	kinase still bound, per cent of control [24]	kinase still bound, per cent of control [25]	further results
CCOc1cc(N2CCC(O)CC2)ccc1Nc1ncc2c(n1)N(C)c1ccccc1C(=O)N2C	100%	100%	100%	0.65%	100%	100%	100%	100%	100%	100%	100%	100%	100%	100%	100%	100%	100%	100%	100%	100%	kinase still bound, per cent of control [7]: 100%; kinase still bound, per cent of control [14]: 100%; kinase still bound, per cent of control [21]: 15%; kinase still bound, per cent of control [22]: 100%; kinase still bound, per cent of control [23]: 100%; kinase still bound, per cent of control [26]: 100%; kinase still bound, per cent of control [27]: 100%; kinase still bound, per cent of control [28]: 100%; kinase still bound, per cent of control [29]: 100%; kinase still bound, per cent of control [30]: 100%; kinase still bound, per cent of control [31]: 100%; kinase still bound, per cent of control [32]: 100%; kinase still bound, per cent of control [33]: 100%; kinase still bound, per cent of control [34]: 100%; kinase still bound, per cent of control [35]: 100%; kinase still bound, per cent of control [36]: 17%
Cc1cn(-c2cc(C(=O)Nc3ccc(C)c(NC(=O)c4ccno4)c3)cc(C(F)(F)F)c2)cn1	100%	100%	100%	100%	100%	100%	100%	100%	100%	100%	100%	100%	100%	100%	100%	100%	100%	100%	100%	100%	kinase still bound, per cent of control [7]: 15%; kinase still bound, per cent of control [14]: 100%; kinase still bound, per cent of control [21]: 100%; kinase still bound, per cent of control [22]: 100%; kinase still bound, per cent of control [23]: 100%; kinase still bound, per cent of control [26]: 100%; kinase still bound, per cent of control [27]: 100%; kinase still bound, per cent of control [28]: 100%; kinase still bound, per cent of control [29]: 100%; kinase still bound, per cent of control [30]: 100%; kinase still bound, per cent of control [31]: 100%; kinase still bound, per cent of control [32]: 100%; kinase still bound, per cent of control [33]: 100%; kinase still bound, per cent of control [34]: 100%; kinase still bound, per cent of control [35]: 100%; kinase still bound, per cent of control [36]: 100%
CCN(CCO)CCCOc1ccc2c(Nc3cc(CC(=O)Nc4cccc(F)c4)[nH]n3)ncnc2c1	29%	60%	90%	100%	100%	58%	63%	98%	100%	56%	29%	97%	15%	71%	90%	85%	19%	93%	69%	100%	kinase still bound, per cent of control [37]: 50%; kinase still bound, per cent of control [7]: 9.6%; kinase still bound, per cent of control [38]: 98%; kinase still bound, per cent of control [21]: 100%; kinase still bound, per cent of control [22]: 100%; kinase still bound, per cent of control [39]: 0.4%; kinase still bound, per cent of control [23]: 80%; kinase still bound, per cent of control [26]: 77%; kinase still bound, per cent of control [27]: 100%; kinase still bound, per cent of control [28]: 88%; kinase still bound, per cent of control [29]: 75%; kinase still bound, per cent of control [31]: 87%; kinase still bound, per cent of control [32]: 87%; kinase still bound, per cent of control [33]: 100%; kinase still bound, per cent of control [34]: 16%; kinase still bound, per cent of control [36]: 100%; kinase still bound, per cent of control [40]: 91%
CC(=O)c1c(C)c2cnc(Nc3ccc(N4CCNCC4)cn3)nc2n(C2CCCC2)c1=O	52%	48%	5%	2.9%	64%	47%	0.85%	7.6%	0.9%	57%	42%	40%	12%	20%	47%	66%	96%	6.8%	40%	90%	kinase still bound, per cent of control [37]: 1%; kinase still bound, per cent of control [38]: 30%; kinase still bound, per cent of control [14]: 87%; kinase still bound, per cent of control [39]: 62%; kinase still bound, per cent of control [26]: 40%; kinase still bound, per cent of control [28]: 39%; kinase still bound, per cent of control [29]: 67%; kinase still bound, per cent of control [30]: 83%; kinase still bound, per cent of control [31]: 8%; kinase still bound, per cent of control [32]: 49%; kinase still bound, per cent of control [34]: 7.9%; kinase still bound, per cent of control [36]: 92%; kinase still bound, per cent of control [40]: 87%
